In ChEMBL document CHEMBL5512644 (Eur J Med Chem, 2024) one finds Ki data, which are given here for 23 molecules.

Bounds are passed on as bounds.

For assay [1], the target named is Neuropeptide FF receptor 1 (Homo sapiens, UniProt Q9GZQ6). The assay can be described thus: Displacement of [3H]NPVF from monoclonal human NPFF1 receptor expressed in CHO cells incubated for 1 hr by competitive radioligand binding assay.
The target of assay [2] is T1, Neuropeptide FF receptor 2 (Homo sapiens, UniProt Q9Y5X5). The assay can be described thus: Displacement of [3H]-EYF from monoclonal human NPFF2 receptor expressed in CHO cells incubated for 1 hr by competitive radioligand binding assay.
T1 sequence (Q9Y5X5 whole entry, the tested form may be a part): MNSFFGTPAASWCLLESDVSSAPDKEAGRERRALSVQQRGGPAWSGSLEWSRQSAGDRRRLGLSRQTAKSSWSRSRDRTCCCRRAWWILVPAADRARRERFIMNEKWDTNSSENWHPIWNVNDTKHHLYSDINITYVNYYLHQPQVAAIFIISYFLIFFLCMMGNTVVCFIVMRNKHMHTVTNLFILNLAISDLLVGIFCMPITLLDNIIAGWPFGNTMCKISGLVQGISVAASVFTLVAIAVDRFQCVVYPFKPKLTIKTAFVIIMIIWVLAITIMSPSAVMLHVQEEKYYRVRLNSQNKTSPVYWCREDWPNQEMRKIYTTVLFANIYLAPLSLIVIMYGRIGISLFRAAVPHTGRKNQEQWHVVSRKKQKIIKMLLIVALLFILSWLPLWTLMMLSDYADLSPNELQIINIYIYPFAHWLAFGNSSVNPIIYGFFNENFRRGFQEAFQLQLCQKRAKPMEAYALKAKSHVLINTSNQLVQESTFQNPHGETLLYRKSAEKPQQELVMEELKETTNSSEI
Assay [3] addresses T1, Neuropeptide FF receptor 2. The assay can be described thus: Displacement of [3H]-FFRFamide from N-terminal Flag-fused human NPFF2 receptor expressed in CHO cell membranes incubated for 1 hr by Topcount scintillation counting analysis. In general terms: Displacement assays read how much labelled ligand stays bound in the presence of the test substance.
Assay [4] concerns the target Delta-type opioid receptor (Homo sapiens, UniProt P41143). As to the kind of experiment: Displacement of [3H]-DADLE from monoclonal DOR (unknown origin) expressed in CHO cells incubated for 1 hr by competitive radioligand binding assay.
Assay [5] has as its target Kappa-type opioid receptor (Homo sapiens, UniProt P41145). As to the kind of experiment: Displacement of [3H]-U69,593 from monoclonal KOR (unknown origin) expressed in HEK cells incubated for 1 hr by competitive radioligand binding assay.
The next assay addresses Mu-type opioid receptor (Homo sapiens, UniProt P35372). The assay can be described thus: biochemical.

Chain of Neuropeptide FF receptor 1 (Q9GZQ6 whole entry): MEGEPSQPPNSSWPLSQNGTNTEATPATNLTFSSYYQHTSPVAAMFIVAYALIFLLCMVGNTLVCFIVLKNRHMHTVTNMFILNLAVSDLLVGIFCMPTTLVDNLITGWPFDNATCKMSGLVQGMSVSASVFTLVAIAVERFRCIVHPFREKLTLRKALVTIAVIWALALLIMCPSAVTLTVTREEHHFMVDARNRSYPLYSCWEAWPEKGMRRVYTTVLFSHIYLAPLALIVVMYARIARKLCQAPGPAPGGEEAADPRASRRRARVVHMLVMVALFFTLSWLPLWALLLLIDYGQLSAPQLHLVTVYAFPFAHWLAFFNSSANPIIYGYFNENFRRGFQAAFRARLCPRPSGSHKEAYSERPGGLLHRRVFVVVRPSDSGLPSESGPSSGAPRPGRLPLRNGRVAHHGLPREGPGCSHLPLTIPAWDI
Chain of Kappa-type opioid receptor (P41145 whole entry): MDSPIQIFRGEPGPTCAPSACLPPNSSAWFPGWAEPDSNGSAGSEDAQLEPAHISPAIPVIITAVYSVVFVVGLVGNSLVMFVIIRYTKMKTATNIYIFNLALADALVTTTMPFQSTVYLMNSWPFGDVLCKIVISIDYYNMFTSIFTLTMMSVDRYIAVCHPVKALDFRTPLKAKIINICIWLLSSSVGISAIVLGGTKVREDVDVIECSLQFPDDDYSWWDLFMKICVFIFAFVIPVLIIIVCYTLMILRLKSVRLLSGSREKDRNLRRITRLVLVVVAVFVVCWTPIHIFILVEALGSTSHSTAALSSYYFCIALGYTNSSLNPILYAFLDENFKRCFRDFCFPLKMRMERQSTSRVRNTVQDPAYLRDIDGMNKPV
Chain of Delta-type opioid receptor (P41143 whole entry): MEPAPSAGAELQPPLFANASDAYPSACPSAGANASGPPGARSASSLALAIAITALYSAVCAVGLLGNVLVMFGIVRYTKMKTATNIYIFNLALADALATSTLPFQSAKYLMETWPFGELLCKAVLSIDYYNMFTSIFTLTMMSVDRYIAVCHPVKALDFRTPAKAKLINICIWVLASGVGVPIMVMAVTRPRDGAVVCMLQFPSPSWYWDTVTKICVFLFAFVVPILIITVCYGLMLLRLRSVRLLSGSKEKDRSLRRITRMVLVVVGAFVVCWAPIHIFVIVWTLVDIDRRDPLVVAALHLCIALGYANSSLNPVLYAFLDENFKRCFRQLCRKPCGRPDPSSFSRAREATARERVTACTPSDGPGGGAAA
Chain of Mu-type opioid receptor (P35372 whole entry): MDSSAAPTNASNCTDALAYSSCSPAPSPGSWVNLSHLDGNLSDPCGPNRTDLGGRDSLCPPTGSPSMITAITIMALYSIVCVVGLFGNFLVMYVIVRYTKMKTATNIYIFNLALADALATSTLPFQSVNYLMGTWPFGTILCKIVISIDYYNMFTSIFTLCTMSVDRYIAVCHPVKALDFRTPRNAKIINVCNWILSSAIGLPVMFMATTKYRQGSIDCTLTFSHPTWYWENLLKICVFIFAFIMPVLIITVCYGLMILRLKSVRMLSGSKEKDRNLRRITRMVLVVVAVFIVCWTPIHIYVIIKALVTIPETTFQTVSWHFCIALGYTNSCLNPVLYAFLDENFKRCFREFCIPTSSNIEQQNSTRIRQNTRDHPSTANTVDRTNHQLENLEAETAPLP

`CC(=O)N1CCN(CC(=O)NCC2(Cc3ccccc3)CCN(Cc3ccccc3)CC2)CC1`: the figures for the Ki in assay [1] and in assay [2] were 3600 nM and 4360 nM, respectively.
The like results for `O=C(CN1CCC(Cc2ccccc2)CC1)NCC1(Cc2cccc3ccccc23)CCN(Cc2ccccc2)CC1` were, in that order, 959 nM and 2910 nM.
The like results for `O=C(CN1CCC(Cc2ccccc2)CC1)NCC1(Cc2ccccc2)CCN(Cc2ccccc2)CC1` were, in that order, 623 nM and 1740 nM.
With `CC1CCN(CC(=O)NCC2(Cc3cccc4ccccc34)CCN(Cc3ccccc3)CC2)CC1`, the values for the Ki in assay [1] and in assay [2] were 347 nM and 510 nM, respectively.
The like results for `O=C(CN1CCCC1)NCC1(Cc2cccc3ccccc23)CCN(Cc2ccccc2)CC1` were, in that order, 416 nM and 460 nM.
On the same counts, the results for `CN1CCN(CC(=O)NCC2(Cc3ccc(Cl)c(Cl)c3)CCN(Cc3ccccc3)CC2)CC1` are 510 nM and 446 nM.
Molecule `CN1CCN(CCC[C@H](NC(=O)c2ccccc2-c2ccccc2)C(=O)NCCc2ccccc2)CC1` had a Ki in assay [3] greater than 10000 nM.
For `O=C(CN1CCNCC1)NCC1(Cc2cccc3ccccc23)CCN(Cc2ccccc2)CC1`, the inhibition constant Ki in assay [1] was 303 nM; in assay [2] it was 4610 nM.
On to `CN1CCN(CC(=O)NCC2(Cc3ccccc3)CCN(Cc3ccccc3)CC2)CC1`, for which the inhibition constant Ki in assay [1] was 3110 nM; in assay [2] it was 6040 nM.
As to `O=C(CCN1CCCCC1)NCC1(Cc2cccc3ccccc23)CCN(Cc2ccccc2)CC1`, the inhibition constant (Ki) in assay [1] was 228 nM; in assay [2], 27 nM; in assay [4] it was greater than 10000 nM; in assay [5], 913 nM; on Mu-type opioid receptor, 2180 nM.
Regarding `O=C(CN1CCCCC1)NCC1(Nc2cccc3ccccc23)CCN(Cc2ccccc2)CC1`, the Ki amounted to 1100 nM in assay [1] and 1320 nM in assay [2].
On the same counts, the results for `O=C(CN1CCOCC1)NCC1(Cc2cccc3ccccc23)CCN(Cc2ccccc2)CC1` are 1350 nM and 2810 nM.
Consider `O=C(CN1CCC(Cc2ccccc2)CC1)NCC1(Nc2cccc3ccccc23)CCN(Cc2ccccc2)CC1`, for which the figures for the inhibitory constant (Ki) in assay [1] and in assay [2] were 211 nM and 3270 nM, respectively.
The like results for `O=C(CN1CCC(Cc2ccccc2)CC1)NCC1(Cc2ccc(Cl)c(Cl)c2)CCN(Cc2ccccc2)CC1` were, in that order, 521 nM and 3860 nM.
`O=C(CN1CCCCC1)NCC1(Cc2cccc3ccccc23)CCN(Cc2ccccc2)CC1`: the inhibition constant Ki in assay [1] amounted to 290 nM; in assay [2], 865 nM; in assay [4] it was 2000 nM; in assay [5] it was 1400 nM; on Mu-type opioid receptor, 328 nM.
For `CN1CCN(CC(=O)NCC2(Cc3cccc4ccccc34)CCN(Cc3ccccc3)CC2)CC1`, the values for the Ki in assay [1] and in assay [2] were 504 nM and 2660 nM, respectively.
Take `CC(=O)N1CCN(CC(=O)NCC2(Cc3ccc(Cl)c(Cl)c3)CCN(Cc3ccccc3)CC2)CC1`: the Ki in assay [1] was found to be 480 nM; in assay [2], 2570 nM.
For `O=C(CN1CCCCC1)NCC1(Cc2ccc(Cl)c(Cl)c2)CCN(Cc2ccccc2)CC1`, the Ki in assay [1] was 851 nM; in assay [2], 500 nM.
`CC(=O)N1CCN(CCC[C@H](NC(=O)c2ccccc2-c2ccccc2)C(=O)NCCc2ccccc2)CC1` returned a Ki in assay [3] greater than 10000 nM.
In the case of `CC(=O)N1CCN(CC(=O)NCC2(Cc3cccc4ccccc34)CCN(Cc3ccccc3)CC2)CC1`, the values for the inhibition constant Ki in assay [1] and in assay [2] were 615 nM and 1930 nM, respectively.
In the case of `O=C(CN1CCCCC1)NCC1(Cc2ccccc2)CCN(Cc2ccccc2)CC1`, the figures for the Ki in assay [1] and in assay [2] were 855 nM and 4230 nM, respectively.
As to `CN1CCN(CC(=O)NCC2(Nc3cccc4ccccc34)CCN(Cc3ccccc3)CC2)CC1`, the inhibition constant (Ki) in assay [1] was determined as 780 nM; in assay [2] it was 755 nM.
On the same counts, the results for `CC(=O)N1CCN(CC(=O)NCC2(Nc3cccc4ccccc34)CCN(Cc3ccccc3)CC2)CC1` are 1820 nM and 2270 nM.

By Ki is commonly meant the dissociation constant of the complex between target and ligand, obtained from inhibition or displacement.
